Test results: ChEMBL document CHEMBL1133352, “Synthesis and endothelin receptor binding activity of synthetic analogues of RES-1149-2” (Bioorg Med Chem Lett, 2000)

Experiments:
[1] = target: T1, Endothelin receptor type B (Homo sapiens, UniProt P24530); assay: Tested for binding affinity towards human Endothelin B receptor
T1 sequence (P24530 whole entry): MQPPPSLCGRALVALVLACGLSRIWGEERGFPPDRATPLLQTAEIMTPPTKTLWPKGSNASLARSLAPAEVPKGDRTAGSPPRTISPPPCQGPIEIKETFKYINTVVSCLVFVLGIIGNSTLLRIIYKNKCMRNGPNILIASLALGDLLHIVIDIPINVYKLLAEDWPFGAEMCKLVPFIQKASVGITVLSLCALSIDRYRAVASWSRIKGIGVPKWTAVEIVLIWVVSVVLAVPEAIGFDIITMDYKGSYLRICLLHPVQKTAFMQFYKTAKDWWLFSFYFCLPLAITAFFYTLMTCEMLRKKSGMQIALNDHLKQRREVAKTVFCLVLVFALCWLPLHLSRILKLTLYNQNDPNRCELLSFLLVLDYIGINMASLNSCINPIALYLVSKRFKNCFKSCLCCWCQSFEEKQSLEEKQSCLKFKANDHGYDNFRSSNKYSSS

Endothelin-1 receptor = target: T2, Endothelin-1 receptor (Homo sapiens, UniProt P25101); assay: Tested for binding affinity towards human Endothelin A receptor
T2 sequence (P25101 whole entry): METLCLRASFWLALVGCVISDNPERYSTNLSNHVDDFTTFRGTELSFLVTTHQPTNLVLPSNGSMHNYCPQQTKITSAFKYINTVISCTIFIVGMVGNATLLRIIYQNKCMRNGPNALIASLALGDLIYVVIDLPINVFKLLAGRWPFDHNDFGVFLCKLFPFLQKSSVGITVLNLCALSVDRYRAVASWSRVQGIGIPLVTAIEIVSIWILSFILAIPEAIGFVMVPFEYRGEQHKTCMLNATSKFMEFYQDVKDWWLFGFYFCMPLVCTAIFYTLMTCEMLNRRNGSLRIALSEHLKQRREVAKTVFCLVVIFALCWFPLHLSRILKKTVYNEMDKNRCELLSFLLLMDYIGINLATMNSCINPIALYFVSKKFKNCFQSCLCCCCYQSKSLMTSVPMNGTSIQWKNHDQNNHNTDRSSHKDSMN

Row | Structure (SMILES) | IC50 [1] [µM] | IC50 (Endothelin-1 receptor) [µM]
1 | C/C=C/C=C/C(=O)O[C@@H]1C=C2COC(O)[C@]2(O)[C@@]2(C)CCCC(C)(C)C12 (stereo partly drawn) | 148 | > 250
2 | C/C=C/C=C/C(=O)O[C@@H]1C=C2COC(OC)[C@]2(O)CC1 (stereo partly drawn) | > 25 | 8.2
3 | C/C=C/C=C/C(=O)O[C@@H]1C=C2COC(=O)[C@]2(O)CC1 | > 25 | 2.6
4 | C/C=C/C=C/C=C/C(=O)O[C@@H]1C=C2COC(O)[C@]2(O)[C@@]2(C)CCCC(C)(C)C12 (stereo partly drawn) |  | 62
5 | C/C=C/C=C/C(=O)O[C@@H]1C=C2COC(O)[C@]2(O)CC1 (stereo partly drawn) | > 25 | 
